In this assay the target is WWP1 (WW domain–containing ubiquitin E3 ligase 1) (Homo sapiens, UniProt Q9H0M0, F577A/Y656A). Description: microscale thermophoresis. The class given is binding.

One may read the Kd as the constant that tells how readily two partners part at equilibrium. The low end stands for higher affinity, the high end for lower affinity.

Sequence of WWP1 (WW domain–containing ubiquitin E3 ligase 1) (Q9H0M0 546-922 F577A/Y656A limits assumed): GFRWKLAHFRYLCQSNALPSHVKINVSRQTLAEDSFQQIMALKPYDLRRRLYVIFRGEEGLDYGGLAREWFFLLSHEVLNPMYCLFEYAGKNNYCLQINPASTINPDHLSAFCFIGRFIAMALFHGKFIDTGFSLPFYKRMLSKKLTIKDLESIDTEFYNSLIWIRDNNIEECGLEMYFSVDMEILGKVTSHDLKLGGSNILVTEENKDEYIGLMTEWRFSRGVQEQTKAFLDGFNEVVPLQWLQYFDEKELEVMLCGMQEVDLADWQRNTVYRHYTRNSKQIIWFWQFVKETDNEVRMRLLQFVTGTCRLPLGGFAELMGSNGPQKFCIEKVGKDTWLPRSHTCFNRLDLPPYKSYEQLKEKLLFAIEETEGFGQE

Take `OCc1c[nH]c2ccccc12` [I3C, indole-3-carbinol]: the Kd is roughly 7.72 µM.

Source of the values: paper PMC7081834 (Science (New York, N.Y.), 2019).
